Data set [1] concerns Lactobacillus rhamnosus GG (LGG). The data set can be described thus: LGG proliferation in culture (OD600). In kind it is cell-based. To be noted: compared with scrambled miRNA. The procedure:
Bacteria. Lactobacillus rhamnosus (LGG) was obtained from ATCC® (Catalog No. 53103). The SpaC-deleted LGG was cultured in Lysogeny broth (LB; ISC BioExpress, Kaysville, Utah, United States of America) at 37° C. Ruminococcaceae sp. (ATCC® Catalog No. TSD-27) was grown in GS2+cellobiose medium (Biddle et al., 2013). Listeria monocytogenes (Listeria; ATCC® Catalog No. 15313) and Bacteroides fragilis (Fragilis, NCTC 9343) were cultured in brain heart infusion (BHI) broth (Hardy Diagnostics, Santa Maria, California, United States of America) as described in Zhang & Wang, 2015 and Deng et al., 2015, respectively. LGG was grown in MRS broth media at 37° C. in anaerobic conditions for 14-16 hours to an OD600 of 0.8-1.0. Bacterial viability and concentration were checked by MRS agar platting. Cultures were centrifuged and the bacterial pellet was diluted in MRS for in vitro experiments and in PBS for gavaging at 10^9 CFU/mouse per day.

Data set [2] deals with LGG. Kind of data set: Bacterial translocation to peripheral blood and liver. To be noted: DSS-treated SPF and germ-free mice, compared with LGG alone. In kind it is in vivo. The procedure:
Bacterial Translocation. Bacterial translocation from the murine gut to peripheral blood and liver was determined at the indicated times presented in the relevant figures after oral bacterial administration. Fifty microliters of anticoagulant blood were cultured on MRS agar for 48 h at 37° C. in an anaerobic chamber. Liver tissue samples were homogenized in 0.5% Triton X-100/PBS, and 100 μl of the homogenates were cultured on MRS agar plates. After 48 hours of incubation, CFUs were counted, and the results are expressed as number of bacteria detected/mL of blood or gram of liver.

Data set [3] concerns SpaC. The data set can be described thus: SpaC expression in LGG (qPCR, Western blotting). As to conditions: compared with scrambled miRNA. It counts as cell-based, Lactobacillus rhamnosus. The procedure: Quantitative Real-Time PCR for RNA Expression. The quantity of mature miRNAs was determined with quantitative real-time PCR (qPCR) using a miScript II RT kit (QIAGEN Inc., Germantown, Maryland, United States of America) and miScript SYBR Green PCR Kit (QIAGEN) with QIAGEN 3′ universal primers. For analysis of gene mRNA expression, 1 μg of total RNA was reverse transcribed using SuperScript III reverse transcriptase (Invitrogen, Waltham, Massachusetts, United States of America), and quantitation was performed using SsoAdvanced™ Universal SYBR Green Supermix (Bio-Rad Laboratories, Inc., Hercules, California, United States of America) and the listed primers (Table 1) with SsoAdvanced™ Universal SYBR Green Supermix (Bio-Rad). qPCR was performed using a Bio-Rad CFX96 qPCR System with each reaction run in triplicate. Analysis and fold-changes were determined using the comparative threshold cycle (Ct) method. Changes in miRNA or mRNA expression were calculated as fold-change.
Western Blotting. LGG cells were treated as indicated in each individual Figure and harvested from 100-350 ml cultures by centrifugation at 5,000×g for 10 minutes. […] After the Alexa Fluor-647 (Invitrogen) conjugated secondary antibody incubation, the bands were visualized and analyzed using an Odyssey Imager (LI-COR, Lincoln, Nebraska, United States of America). […]
Background: Quantitative PCR measures a nucleic acid by following its amplification.

As to “ath-miR167a: GELN miRNA, SEQ ID NO: 9 (UGAAGCUGCCAGCAUGAUCUA; expressed or natural sequence)”, the “growth of SpaC^del LGG” value in data set [1] is given as “no effect”. Also, in data set [2], the “LGG migration into bloodstream and liver” value is on record as “significantly reduced LGG translocation into the peripheral blood”. For the same substance, the “SpaC expression in LGG” value in data set [3] is given as “significantly down-regulated”.

Values taken from patent publication US12036262B2, “Edible plant-derived nanoparticles for regulation of gut microbiota” (University of Louisville Research Foundation, Inc., priority 2017, dated 2024).
